Results: the supplement of paper PMC10307832

Legend:
Test in all cases: relative viability (nuclei count vs DMSO), 5 days (fraction); higher = more cells survive
[1] = test system: NCI-H1944
Procedure, shortened: (§1)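 Values are medians from duplicate plates. Each reflects relative viability, defined as the nuclei count of treated wells over that of vehicle wells. Lung cancer cell lines in 1536-well plates were pin-tool dosed one day after seeding with one drug alone or with a fixed anchor-drug dose plus five library-drug doses (not always all listed) in √10 steps, then fixed, stained and imaged at 4× after 5 days.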

[2] = test system: BEN
Procedure, shortened: as §1

[3] = test system: LCLC-97TM1
Procedure, shortened: as §1

[4] = test system: PC-3 [JPC-3]
Procedure, shortened: as §1

[5] = test system: LC-2-ad
Procedure, shortened: as §1

[6] = test system: HCC-15
Procedure, shortened: as §1

[7] = test system: HCC-366
Procedure, shortened: as §1

[8] = test system: EKVX
Procedure, shortened: as §1

[9] = test system: HCC-827
Procedure, shortened: as §1

[10] = test system: SK-MES-1
Procedure, shortened: as §1

[11] = test system: COR-L23
Procedure, shortened: as §1

[12] = test system: NCI-H1755
Procedure, shortened: as §1

[13] = test system: NCI-H3122
Procedure, shortened: as §1

[14] = test system: NCI-H1993
Procedure, shortened: as §1

[15] = test system: COR-L 105
Procedure, shortened: as §1

[16] = test system: SK-LU-1
Procedure, shortened: as §1

[17] = test system: NCI-H596
Procedure, shortened: as §1

[18] = test system: LU99A
Procedure, shortened: as §1

[19] = test system: NCI-H1915
Procedure, shortened: as §1

[20] = test system: RERF-LC-KJ
Procedure, shortened: as §1

Structure (SMILES): COCC1(CO)C(=O)C2CCN1CC2 (stereo unspecified) [PRIMA-1MET] + Cc1nc(NC(=O)N2CCC[C@H]2C(N)=O)sc1-c1ccnc(C(C)(C)C(F)(F)F)c1 [Alpelisib] (partner 2 µM)
- relative viability ([1]; first compound 0.2 µM): 1.01
- relative viability ([1]; first compound 0.6325 µM): 0.719
- relative viability ([1]; first compound 6.325 µM): 0.849
- relative viability ([1]; first compound 20 µM): 0.823
- relative viability ([2]; first compound 0.2 µM): 1.26
- relative viability ([2]; first compound 0.6325 µM): 0.833
- relative viability ([2]; first compound 6.325 µM): 0.909
- relative viability ([2]; first compound 20 µM): 0.994
- relative viability ([3]; first compound 0.2 µM): 0.277
- relative viability ([3]; first compound 2 µM): 0.22
- relative viability ([3]; first compound 6.325 µM): 0.232
- relative viability ([3]; first compound 20 µM): 0.0607
- relative viability ([4]; first compound 0.2 µM): 1.1
- relative viability ([4]; first compound 0.6325 µM): 0.942
- relative viability ([4]; first compound 2 µM): 1.02
- relative viability ([4]; first compound 6.325 µM): 1.07
- relative viability ([4]; first compound 20 µM): 1.06
- relative viability ([5]; first compound 0.2 µM): 0.909
- relative viability ([5]; first compound 0.6325 µM): 0.931
- relative viability ([5]; first compound 2 µM): 1.01
- relative viability ([5]; first compound 6.325 µM): 0.909
- relative viability ([5]; first compound 20 µM): 0.695
- relative viability ([6]; first compound 0.2 µM): 1.01
- relative viability ([6]; first compound 0.6325 µM): 0.708
- relative viability ([6]; first compound 2 µM): 0.81
- relative viability ([6]; first compound 6.325 µM): 0.999
- relative viability ([6]; first compound 20 µM): 0.643
- relative viability ([7]; first compound 0.2 µM): 0.865
- relative viability ([7]; first compound 0.6325 µM): 0.37
- relative viability ([7]; first compound 6.325 µM): 0.376
- relative viability ([7]; first compound 20 µM): 0.0102
- relative viability ([8]; first compound 0.2 µM): 0.978
- relative viability ([8]; first compound 0.6325 µM): 0.966
- relative viability ([8]; first compound 2 µM): 0.638
- relative viability ([8]; first compound 6.325 µM): 0.911
- relative viability ([8]; first compound 20 µM): 0.778
- relative viability ([9]; first compound 0.2 µM): 1.01
- relative viability ([9]; first compound 0.6325 µM): 0.896
- relative viability ([9]; first compound 2 µM): 0.877
- relative viability ([9]; first compound 6.325 µM): 0.974
- relative viability ([9]; first compound 20 µM): 0.948
- relative viability ([10]; first compound 0.2 µM): 0.885
- relative viability ([10]; first compound 0.6325 µM): 1.02
- relative viability ([10]; first compound 2 µM): 0.747
- relative viability ([10]; first compound 6.325 µM): 0.823
- relative viability ([10]; first compound 20 µM): 0.822
- relative viability ([11]; first compound 0.2 µM): 0.783
- relative viability ([11]; first compound 0.6325 µM): 0.699
- relative viability ([11]; first compound 2 µM): 0.869
- relative viability ([11]; first compound 6.325 µM): 0.726
- relative viability ([11]; first compound 20 µM): 0.0226
- relative viability ([12]; first compound 0.2 µM): 0.974
- relative viability ([12]; first compound 0.6325 µM): 0.891
- relative viability ([12]; first compound 2 µM): 0.864
- relative viability ([12]; first compound 6.325 µM): 0.952
- relative viability ([12]; first compound 20 µM): 0.892
- relative viability ([13]; first compound 0.2 µM): 0.696
- relative viability ([13]; first compound 0.6325 µM): 0.683
- relative viability ([13]; first compound 2 µM): 0.844
- relative viability ([13]; first compound 6.325 µM): 0.628
- relative viability ([13]; first compound 20 µM): 0.684
- relative viability ([14]; first compound 0.2 µM): 0.724
- relative viability ([14]; first compound 0.6325 µM): 0.706
- relative viability ([14]; first compound 2 µM): 0.628
- relative viability ([14]; first compound 6.325 µM): 0.768
- relative viability ([14]; first compound 20 µM): 0.664
- relative viability ([15]; first compound 0.2 µM): 1.11
- relative viability ([15]; first compound 0.6325 µM): 0.997
- relative viability ([15]; first compound 2 µM): 1.14
- relative viability ([15]; first compound 6.325 µM): 0.852
- relative viability ([15]; first compound 20 µM): 0.176
- relative viability ([16]; first compound 0.2 µM): 1.11
- relative viability ([16]; first compound 0.6325 µM): 0.918
- relative viability ([16]; first compound 2 µM): 1.04
- relative viability ([16]; first compound 6.325 µM): 0.99
- relative viability ([16]; first compound 20 µM): 0.109
- relative viability ([17]; first compound 0.2 µM): 0.539
- relative viability ([17]; first compound 0.6325 µM): 0.446
- relative viability ([17]; first compound 2 µM): 0.586
- relative viability ([17]; first compound 6.325 µM): 0.673
- relative viability ([17]; first compound 20 µM): 0.469
- relative viability ([18]; first compound 0.2 µM): 0.631
- relative viability ([18]; first compound 0.6325 µM): 0.457
- relative viability ([18]; first compound 2 µM): 0.488
- relative viability ([18]; first compound 6.325 µM): 0.293
- relative viability ([18]; first compound 20 µM): 0.0448
- relative viability ([19]; first compound 0.2 µM): 1.15
- relative viability ([19]; first compound 0.6325 µM): 0.861
- relative viability ([19]; first compound 2 µM): 0.853
- relative viability ([19]; first compound 6.325 µM): 1.01
- relative viability ([19]; first compound 20 µM): 0.974
- relative viability ([20]; first compound 0.2 µM): 0.797
- relative viability ([20]; first compound 0.6325 µM): 0.835
- relative viability ([20]; first compound 2 µM): 0.715
- relative viability ([20]; first compound 6.325 µM): 1.01
- relative viability ([20]; first compound 20 µM): 0.75
